In test [1] the target is T1, Ferrochelatase, mitochondrial (Homo sapiens) (UniProt P22830).
T1 sequence (whole entry): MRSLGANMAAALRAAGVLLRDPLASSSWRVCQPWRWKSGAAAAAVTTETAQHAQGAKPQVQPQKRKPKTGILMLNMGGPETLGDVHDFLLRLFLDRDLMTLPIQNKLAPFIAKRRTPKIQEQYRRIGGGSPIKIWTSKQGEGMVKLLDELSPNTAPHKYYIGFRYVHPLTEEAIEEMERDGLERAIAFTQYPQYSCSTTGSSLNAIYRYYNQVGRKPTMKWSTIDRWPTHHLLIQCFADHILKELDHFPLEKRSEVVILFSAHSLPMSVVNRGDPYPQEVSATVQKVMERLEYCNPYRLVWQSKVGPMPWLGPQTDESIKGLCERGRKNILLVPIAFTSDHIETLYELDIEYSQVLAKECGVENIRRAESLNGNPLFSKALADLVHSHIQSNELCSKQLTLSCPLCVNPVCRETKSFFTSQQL
The following applies: at 10 µM.
Description: Compound was evaluated for the inhibition of human FECH at 10uM

In test [2] the target is T2, Porphobilinogen deaminase (Homo sapiens) (UniProt P08397).
T2 sequence (whole entry): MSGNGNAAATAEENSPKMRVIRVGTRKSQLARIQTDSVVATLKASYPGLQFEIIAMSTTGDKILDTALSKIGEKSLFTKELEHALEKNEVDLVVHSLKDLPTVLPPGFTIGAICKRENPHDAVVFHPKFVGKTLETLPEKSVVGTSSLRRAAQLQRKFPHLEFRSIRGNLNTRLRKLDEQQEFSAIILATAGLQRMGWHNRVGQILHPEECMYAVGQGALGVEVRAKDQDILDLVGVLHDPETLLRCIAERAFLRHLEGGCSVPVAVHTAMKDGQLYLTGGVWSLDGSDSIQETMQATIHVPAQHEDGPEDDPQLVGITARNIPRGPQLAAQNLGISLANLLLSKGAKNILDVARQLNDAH
The following applies: at 100 µM.
Description: Compound was evaluated for the inhibition of human HMBS at 100uM

SMILES strings stand for the structures. Calls of active or inactive are those of the source. The rule behind the calls is not given here.

Take `CC(C)(C)OC(=O)N1CCN(c2cc(-c3ccc(Oc4ccccc4)cc3)n[nH]2)CC1`: the inhibition entry in test [1] and in test [2] was “inactive” in each case.

`CC1=Nc2ccc(Cl)cc2C(c2ccccc2)N1CCNC(=O)CN(C)C` (centres undefined): the inhibition result in test [1] and in test [2] was “inactive” in each case.

For the compound `COc1cc(NC(C)CCCN)c2ncccc2c1` (centres undefined), the inhibition entry in test [1] and in test [2] was “inactive” in each case.

Regarding `CC(C)(CN)c1nc(-c2ccc(Cl)c(O)c2)c(-c2ccnc(N)n2)[nH]1`, the inhibition entry in test [1] and in test [2] was “inactive” each time.

Consider `O=C(Nc1nc(-c2ccccn2)cs1)C1CC1c1ccccc1F` (centres undefined), for which the inhibition result in test [1] and in test [2] was “inactive” each time.

On to `O=[N+]([O-])c1cn2c(n1)OC[C@@H](OCc1ccc(OC(F)(F)F)cc1)C2`, for which the inhibition result in test [1] and in test [2] was “inactive” in each case.

For the compound `O=C(C1CCN(c2nnc(-n3cccc3)s2)CC1)N1CCC(Cc2ccccc2)CC1`, the inhibition result in test [1] and in test [2] was “inactive” throughout.

Take `O=C(N[C@H](Cc1ccccc1)C(=O)Nc1ccccc1N1CCOCC1)c1cccs1`: the inhibition result in test [1] and in test [2] was “inactive” throughout.

As to `CCCCc1ccc(NC(=O)Nc2ccc(O[C@H]3CCCC[C@@H]3N(C)c3ccccc3)c(F)c2)cc1`, the inhibition result in test [1] and in test [2] was “inactive” each time.

Turning to `O=C(Nc1cccc(Cl)c1)c1cnc(N2CCN(c3ccncc3)CC2)c(Cl)c1`, the inhibition entry in test [1] and in test [2] was “inactive” in each case.

`O=C1N(Cc2cc3ccccc3s2)CC2CN(Cc3ccccc3)CCN12` (centres undefined): the inhibition entry in test [1] and in test [2] was “inactive” throughout.

`CC(C)/N=c1\cc2n(-c3ccc(Cl)cc3)c3ccccc3nc-2cc1Nc1ccc(Cl)cc1`: the inhibition result in test [1] and in test [2] was “inactive” each time.

On to `CNC(=O)C1Cc2c([nH]c3cc(Cl)ccc23)C2(CCN(CCc3ccccc3)CC2)N1` (centres undefined), for which the inhibition entry in test [1] and in test [2] was “inactive” each time.

On to `CCCCN(CCCC)c1c(C#N)cc(S(=O)(=O)Nc2ccccc2)cc1C#N`, for which the inhibition entry in test [1] and in test [2] was “inactive” throughout.

Consider `OC[C@H]1O[C@@H](n2c3ccc(Cl)cc3c3c(-c4cc5ccccc5o4)ncnc32)C(O)[C@H]1O` (some centres undefined), for which the inhibition result in test [1] and in test [2] was “inactive” in each case.

Consider `CC(C)n1nc(-c2cc3c(Cl)cccc3[nH]2)c2c(N)ncnc21`, for which the inhibition entry in test [1] and in test [2] was “inactive” in each case.

For the compound `Cc1cccc(-c2nc(Nc3ccncn3)c3sccc3n2)n1`, the inhibition result in test [1] and in test [2] was “inactive” each time.

On to `CN1CCC(c2cc(-c3ccncc3)c(-c3ccc(F)cc3)[nH]2)CC1`, for which the inhibition entry in test [1] and in test [2] was “inactive” in each case.

In the case of `Cc1cccc(Cn2ccc(NC(=O)c3ccc4c(c3)OCO4)n2)c1`, the inhibition result in test [1] and in test [2] was “inactive” each time.

With `O=C(NC1CCCCC1)N1CCN(Cc2ccc3c(c2)OCO3)CC1`, the inhibition result in test [1] and in test [2] was “inactive” in each case.

Consider `CCc1ccc([C@@H]2C[C@H](C(F)(F)F)n3ncc(C(=O)NCc4ccc(OC)cc4)c3N2)cc1`, for which the inhibition entry in test [1] and in test [2] was “inactive” throughout.

For `CCNC(=O)C(C)Nc1nc(-c2cccnc2)nc2sc(C)c(C)c12` (centres undefined), the inhibition result in test [1] and in test [2] was “inactive” throughout.

For `Cc1ccc(S(=O)(=O)Nc2ccc(CN3CCN(C(=O)c4cccc(C#N)c4)CC3)cc2)cc1`, the inhibition entry in test [1] and in test [2] was “inactive” throughout.

As to `O=C(CN1CCOCC1)Nc1ccc2ncnc(Nc3ccc(OCc4cccc(F)c4)c(Cl)c3)c2c1`, the inhibition result in test [1] and in test [2] was “inactive” throughout.

Take `O=C(Nc1ccccc1-c1nc2c(C(=O)O)cccc2o1)c1ccccc1`: the inhibition entry in test [1] and in test [2] was “inactive” in each case.

As to `Cc1cc(C)nc(-n2nc(C)cc2Nc2ccccc2)n1`, the inhibition result in test [1] and in test [2] was “inactive” throughout.

With `CCCn1c(CNc2ccccc2O)nc2ccccc21`, the inhibition entry in test [1] and in test [2] was “inactive” each time.

For `COc1cc2ncnc(NC3CCN(Cc4ccccc4)CC3)c2cc1OC`, the inhibition result in test [1] and in test [2] was “inactive” each time.

In the case of `CN1CCN(S(=O)(=O)c2ccc(-c3ccc4c(Nc5ccc6nn[nH]c6c5)ccnc4c3)cc2)CC1`, the inhibition result in test [1] and in test [2] was “inactive” each time.

As to `COC(=O)c1c(NC(=O)c2c(F)c(F)c(F)c(F)c2F)sc2c1CCCCC2`, the inhibition result in test [1] and in test [2] was “inactive” each time.

For the compound `FC(F)(F)c1cnc(Sc2nnc(-c3ccncc3)o2)c(Cl)c1`, the inhibition entry in test [1] and in test [2] was “inactive” each time.

Regarding `CC(C)n1ncc2c(C(=O)NCC(c3cccs3)N3CCOCC3)cc(-c3ccccc3)nc21` (centres undefined), the inhibition entry in test [1] and in test [2] was “inactive” in each case.

Turning to `c1cncc(NCc2ccc(-c3cc4ccncc4cc3OC3CCNCC3)s2)c1`, the inhibition result in test [1] and in test [2] was “inactive” each time.

For the compound `Cc1nn2c(O)c3c(nc2c1-c1ccc(F)cc1)CCCC3`, the inhibition entry in test [1] and in test [2] was “inactive” throughout.

As for `CC(C)(C)n1nc(-c2ccccc2)c2c(N)ncnc21`, the inhibition entry in test [1] and in test [2] was “inactive” in each case.

On to `CCC(=O)Nc1ccccc1C(=O)Nc1ccccn1`, for which the inhibition result in test [1] and in test [2] was “inactive” in each case.

Take `CC(C)c1ncc(-c2ccncc2)c([C@H]2CC[C@H](CNC(=O)c3cccnc3)CC2)n1`: the inhibition entry in test [1] and in test [2] was “inactive” each time.

Take `N=C(N)Nc1ccc(-c2ccc(-c3ccc(NC(=N)N)cc3Cl)o2)c(Cl)c1`: the inhibition result in test [1] and in test [2] was “inactive” each time.

Turning to `COc1ccc(C2CC(c3cccs3)=NN2C(=O)c2ccco2)cc1OC` (centres undefined), the inhibition result in test [1] and in test [2] was “inactive” in each case.

Turning to `Cc1cc2ccccc2n1CC(=O)N1CC(C(=O)N2CCCCC2)Oc2ccccc21` (centres undefined), the inhibition entry in test [1] and in test [2] was “inactive” throughout.

Take `CNC(=O)c1cc(S(=O)(=O)N2CCN(c3ccccn3)CC2)cs1`: the inhibition result in test [1] and in test [2] was “inactive” each time.

As to `OCc1ccc(-c2cncc(Nc3cccc(Cl)c3)c2)cc1`, the inhibition entry in test [1] and in test [2] was “inactive” in each case.

As for `CC(=O)Nc1ccc(-c2noc(CC3CCCN(Cc4cccc(F)c4C)C3)n2)cc1` (centres undefined), the inhibition entry in test [1] and in test [2] was “inactive” throughout.

Consider `C[C@H](C(N)=O)N1CCCC[C@H]1c1ccc(OCc2cccc(F)c2)cc1`, for which the inhibition entry in test [1] and in test [2] was “inactive” in each case.

Regarding `FC(F)(F)c1cc(NCCc2ccccc2)nc(-c2ccccn2)n1`, the inhibition entry in test [2] was “inactive”.

The values above are taken from ChEMBL document CHEMBL3987221, “The Australian National University Dept Of Immunology Pathogen Box Compounds Screened” (2018).
